In patent publication US11124779B2, “Compositions and methods for treating and preventing pancreatitis, renal injury and cancer” (Yale University, priority 2014, dated 2021):
Where a SMILES comes first, the peptide text is derived from it. Where no end group is shown, it is not given here.

Legend:
HK-2 cells [1] = assay: In vitro model of cisplatin toxicity: HK-2 cell survival by the WST-1 method; type: cell-based, human
Method: FIG. 1B is a graph depicting the effect of renalase peptides on survival of HK-2 cells exposed to 20 μM cisplatin for 24 hrs; cell survival is depicted as % change in survival compared to that in cisplatin-treated HK-2 cells without renalase peptides; cell survival was measured by the WST-1 method; RP-A220: mutated RP-220, and RP-19 and RP-128: control peptides; peptide concentration (μg/ml) indicated in top line; n=4, *=p<0.05. […]
HK-2 cells (human proximal tubular line) obtained from ATTC (Manassas, Va., USA) were cultured in DMEM/F12 supplemented with glutamine, 10% FBS and antibiotics, and were maintained at 37° C. in 5% CO2. Cells were exposed to cisplatin (20 μM) in the presence or absence of recombinant renalase or renalase peptides for 24 hrs, and cell viability was assessed by the WST1 method (Roche Applied Science, Germany).

HK-2 cells [2] = conditions: Wang et al., 2014; cited from earlier work
MAPK signaling = conditions: Wang et al., 2014; cited from earlier work
HK-2 cells [3] = assay: In vitro model of cisplatin toxicity: HK-2 cell survival by the WST-1 method; type: cell-based, human; conditions: control conditions, no cisplatin
ERK = assay: MAPK signaling by immunoblot: ERK phosphorylation in HK-2 cells; type: cell-based, human; conditions: cisplatin alone, 1-60 min
Source text: (§1) FIGS. 2A-2C, depict how RP-220 alters the pattern of MAPK activation in cisplatin treated cells. FIG. 2A is an image of a gel depicting MAPK phosphorylation with cisplatin alone (CP) and with CP and RP-220; representative study: p-p38: phosphorylated p38 MAPK; p-ERK: phosphorylated ERK. FIG. 2B is a graph depicting quantification of ERK activation. Signals were normalized to glyceraldehyde 3-phosphate dehydrogenase (GAPDH) loading control; n=3, *=P<0.05. FIG. 2C is a graph depicting quantification of p38 activation, signals normalized to GAPDH loading control; n=3, *=P<0.05.
(§2) FIGS. 5A-5E, depict how PMCA4b inhibition abrogates renalase peptide mediated MAPK signaling and cytoprotection. […] is a series of panels depicting how PMCA4b inhibition abrogates RP-220 mediated ERK and p38 signaling in HK-2 cells; caloxin1b=peptide inhibitor of PMCA4; left panel: RP-220 mediated ERK and p38 activation, phospho=phosphorylated, representative blot; middle panel: inhibition of RP-220 mediated ERK and p38 activation by caloxin1b (100 μM); right panel: quantification of phosphorylated p38 (P-p38) and phosphorylated ERK (p-ERK); signals were normalized to glyceraldehyde 3-phosphate dehydrogenase (GAPDH) loading control; n=3, *=P<0.05. […]

p38 MAPK = assay: MAPK signaling by immunoblot: p38 phosphorylation in HK-2 cells; type: cell-based, human; conditions: cisplatin alone, 1-60 min
Source text: as §1, §2

[4] = 20 μM cisplatin, 24 hrs, WST-1, range of peptide concentrations

Q: With “RP-128: control renalase peptide, SEQ ID NO: 2, FRHRVTQINLRDDKWEVSKQ, acetylated at the amino terminus (Ac-FRHRVTQINLRDDKWEVSKQ; listed as Homo sapiens)” as the compound, how does the “survival of HK-2 cells exposed to cisplatin (protective effect)” value (shortened to “survival of HK-2 cells exposed”) (HK-2 cells [1]; [4]) read?
A: did not improve cell survival

Q: With “RP-Scr220: scrambled RP-220 control peptide, SEQ ID NO: 7, CSKRIFKVISSIEDNNERG (listed as Homo sapiens)” as the compound, how does the protection of cells (HK-2 cells [2]) read?
A: failed to protect cells

Q: And the “activation of MAPK signaling” value (MAPK signaling)?
A: did not activate MAPK signaling

Q: For “RP-19: control renalase peptide, SEQ ID NO: 1, LLRRQTSGPLYLAVWDKAED, acetylated at the amino terminus (Ac-LLRRQTSGPLYLAVWDKAED; listed as Homo sapiens)”, which “survival of HK-2 cells exposed” value (HK-2 cells [1]; [4]) is on record?
A: did not improve cell survival

Q: Which “survival of HK-2 cells exposed” value (HK-2 cells [1]; 20 μM cisplatin, 24 hrs, test substance 100 μg/ml) does the source give for “RP-224: renalase peptide, SEQ ID NO: 3, CVSIDNKKRNI, acetylated at the amino terminus (Ac-CVSIDNKKRNI; listed as Homo sapiens)” here?
A: protected HK-2 cells to a similar degree

Q: For `CC[C@H](C)[C@H](NC(=O)[C@H](CCC(=O)O)NC(=O)[C@H](CO)NC(=O)[C@H](CO)NC(=O)[C@H](CCC(=O)O)NC(=O)[C@@H](NC(=O)[C@H](CC(N)=O)NC(=O)[C@H](CCCNC(=N)N)NC(=O)[C@H](CCCCN)NC(=O)[C@H](CCCCN)NC(=O)[C@H](CC(N)=O)NC(=O)[C@H](CC(=O)O)NC(=O)[C@@H](NC(=O)[C@H](CO)NC(=O)[C@@H](NC(=O)[C@H](Cc1ccccc1)NC(=O)[C@H](CCCNC(=N)N)NC(=O)[C@@H](NC(=O)[C@H](CS)NC(C)=O)[C@@H](C)CC)C(C)C)[C@@H](C)CC)[C@@H](C)CC)C(=O)NCC(=O)O` [RP-220] (Ac-CIRFVSIDNKKRNIESSEIG-OH), which “protective effect against cisplatin cytotoxicity after down-regulation of PMCA4b expression” value (HK-2 cells [1]; HK-2 cells, PMCA4b siRNA, 20 μM cisplatin 24 hrs, peptide 15 μg/ml) is on record?
A: abrogated

Q: And the “relative potency at protecting HK-2 cells against cisplatin cytotoxicity (concentration dependent effects)” value (HK-2 cells [1]; dose response curve, 20 μM cisplatin, 24 hrs)?
A: equipotent

Q: For “RP-A220: mutated RP-220, SEQ ID NO: 6, IRFVSIDNAAANIESSEIG (listed as Homo sapiens)”, which “survival of HK-2 cells exposed” value (HK-2 cells [1]; [4]) is on record?
A: did not improve cell survival

Q: And the “survival of HK-2 cells exposed” value (HK-2 cells [1]; 20 μM cisplatin, 24 hrs, test substance 80 μg/ml)?
A: exacerbated cisplatin toxicity

Q: Which “survival of HK-2 cells with inhibitor alone” value (HK-2 cells [3]) does the source give for `C[S+]([O-])c1ccc(-c2nc(-c3ccncc3)c(-c3ccc(F)cc3)[nH]2)cc1` (stereo not shown) [SB203580, 4-[4′-Fluorophenyl]-2-[4′-methylsulfinylphenyl]-5-[4′-pyridyl]-imidazole, reference compound] here?
A: did not adversely affect the survival

Q: What about the “effect of kinase inhibitor on protection by RP-220 against cisplatin” value (HK-2 cells [1]; HK-2 cells, 20 μM cisplatin 24 hrs plus RP-220, SB203580 10 μM) of the same compound?
A: completely abrogated

Q: For `N.N.[Cl][Pt][Cl]` [Cisplatin, cisplatin], which ERK phosphorylation (ERK) is on record?
A: modestly increased

Q: What about the p38 phosphorylation (p38 MAPK) of the same compound?
A: modestly increased
